Measured values from the NIST ThermoML archive (doi:10.1016/j.jct.2015.11.027).

Settings: Liquid, Vibrating wire viscometry

Cc1cccc(C)c1 [1,3-dimethylbenzene]
Settings | viscosity [mPa·s]
273.54 K, 10000 kPa | 0.8601
273.54 K, 25000 kPa | 0.9681
273.54 K, 30000 kPa | 1.008
273.55 K, 1000 kPa | 0.8029
273.55 K, 5000 kPa | 0.8274
273.55 K, 15000 kPa | 0.8952
273.55 K, 20000 kPa | 0.9293
273.56 K, 100 kPa | 0.7948
283.24 K, 100 kPa | 0.7
283.24 K, 10000 kPa | 0.7574
283.25 K, 1000 kPa | 0.707
283.25 K, 5000 kPa | 0.7291
283.25 K, 15000 kPa | 0.7883
283.25 K, 20000 kPa | 0.8196
283.25 K, 25000 kPa | 0.853
283.25 K, 30000 kPa | 0.8858
293.06 K, 1000 kPa | 0.6255
293.06 K, 20000 kPa | 0.7224
293.06 K, 25000 kPa | 0.7497
293.07 K, 100 kPa | 0.6215
293.07 K, 5000 kPa | 0.644
293.07 K, 10000 kPa | 0.6692
293.07 K, 15000 kPa | 0.6957
293.07 K, 30000 kPa | 0.7757
302.87 K, 30000 kPa | 0.6903
302.88 K, 5000 kPa | 0.5751
302.88 K, 25000 kPa | 0.6673
302.89 K, 15000 kPa | 0.6204
302.9 K, 100 kPa | 0.5542
302.9 K, 1000 kPa | 0.5571
302.9 K, 10000 kPa | 0.598
302.9 K, 20000 kPa | 0.645
313.29 K, 1000 kPa | 0.4982
313.3 K, 100 kPa | 0.4952
313.3 K, 5000 kPa | 0.5142
313.3 K, 10000 kPa | 0.5341
313.31 K, 15000 kPa | 0.5548
313.31 K, 20000 kPa | 0.5757
313.31 K, 25000 kPa | 0.5968
313.31 K, 30000 kPa | 0.618
323 K, 10000 kPa | 0.4847
323.01 K, 100 kPa | 0.4499
323.01 K, 1000 kPa | 0.4531
323.01 K, 5000 kPa | 0.467
323.02 K, 15000 kPa | 0.5032
323.02 K, 20000 kPa | 0.522
323.02 K, 25000 kPa | 0.5411
323.02 K, 30000 kPa | 0.5599
333.1 K, 100 kPa | 0.4087
333.11 K, 1000 kPa | 0.411
333.11 K, 5000 kPa | 0.4237
333.11 K, 10000 kPa | 0.4414
333.11 K, 15000 kPa | 0.4585
333.11 K, 20000 kPa | 0.4756
333.12 K, 25000 kPa | 0.4931
333.12 K, 30000 kPa | 0.5101
342.97 K, 20000 kPa | 0.4363
342.97 K, 25000 kPa | 0.4516
342.97 K, 30000 kPa | 0.4678
342.98 K, 100 kPa | 0.3731
342.98 K, 1000 kPa | 0.3761
342.98 K, 5000 kPa | 0.3882
342.98 K, 10000 kPa | 0.4036
342.98 K, 15000 kPa | 0.4205
352.88 K, 20000 kPa | 0.4014
352.88 K, 25000 kPa | 0.4162
352.88 K, 30000 kPa | 0.431
352.89 K, 100 kPa | 0.3436
352.89 K, 1000 kPa | 0.346
352.89 K, 5000 kPa | 0.3581
352.89 K, 10000 kPa | 0.3728
352.89 K, 15000 kPa | 0.3867
362.69 K, 100 kPa | 0.3175
362.7 K, 1000 kPa | 0.32
362.7 K, 5000 kPa | 0.3307
362.7 K, 10000 kPa | 0.3452
362.71 K, 15000 kPa | 0.3587
362.71 K, 20000 kPa | 0.3726
362.71 K, 25000 kPa | 0.3859
362.71 K, 30000 kPa | 0.3995
372.5 K, 100 kPa | 0.2936
372.5 K, 1000 kPa | 0.2964
372.51 K, 5000 kPa | 0.307
372.51 K, 10000 kPa | 0.3199
372.51 K, 15000 kPa | 0.3331
372.51 K, 20000 kPa | 0.3463
372.51 K, 25000 kPa | 0.3587
372.51 K, 30000 kPa | 0.3715

CCc1ccccc1 [ethylbenzene]
Settings | viscosity [mPa·s]
253.21 K, 5000 kPa | 1.259
253.22 K, 1000 kPa | 1.211
253.22 K, 10000 kPa | 1.311
253.22 K, 35000 kPa | 1.593
253.23 K, 100 kPa | 1.2
253.23 K, 20000 kPa | 1.423
253.23 K, 25000 kPa | 1.479
253.24 K, 15000 kPa | 1.368
253.24 K, 30000 kPa | 1.535
263.2 K, 10000 kPa | 1.11
263.2 K, 15000 kPa | 1.16
263.21 K, 5000 kPa | 1.063
263.21 K, 20000 kPa | 1.207
263.21 K, 25000 kPa | 1.257
263.21 K, 35000 kPa | 1.35
263.22 K, 100 kPa | 1.021
263.22 K, 1000 kPa | 1.028
263.22 K, 30000 kPa | 1.304
273.15 K, 5000 kPa | 0.9249
273.15 K, 20000 kPa | 1.042
273.15 K, 30000 kPa | 1.123
273.15 K, 35000 kPa | 1.163
273.16 K, 25000 kPa | 1.082
273.17 K, 1000 kPa | 0.8919
273.18 K, 10000 kPa | 0.9635
273.19 K, 15000 kPa | 1.003
273.21 K, 100 kPa | 0.8832
283.13 K, 1000 kPa | 0.7784
283.14 K, 10000 kPa | 0.8372
283.15 K, 20000 kPa | 0.9017
283.16 K, 100 kPa | 0.7737
283.16 K, 5000 kPa | 0.8028
283.16 K, 30000 kPa | 0.9641
283.16 K, 35000 kPa | 0.9964
283.17 K, 15000 kPa | 0.8678
283.17 K, 25000 kPa | 0.9314
293.18 K, 5000 kPa | 0.7056
293.2 K, 1000 kPa | 0.6832
293.22 K, 25000 kPa | 0.8173
293.23 K, 15000 kPa | 0.7607
293.24 K, 10000 kPa | 0.7327
293.24 K, 20000 kPa | 0.7871
293.24 K, 30000 kPa | 0.8447
293.26 K, 100 kPa | 0.6786
293.26 K, 35000 kPa | 0.8724
303.15 K, 100 kPa | 0.6033
303.17 K, 1000 kPa | 0.6074
303.17 K, 20000 kPa | 0.6989
303.18 K, 5000 kPa | 0.6268
303.18 K, 25000 kPa | 0.7235
303.18 K, 35000 kPa | 0.7739
303.19 K, 15000 kPa | 0.6744
303.19 K, 30000 kPa | 0.7502
303.2 K, 10000 kPa | 0.6499
313.08 K, 30000 kPa | 0.6722
313.09 K, 20000 kPa | 0.6261
313.1 K, 10000 kPa | 0.5812
313.1 K, 25000 kPa | 0.649
313.1 K, 35000 kPa | 0.694
313.11 K, 5000 kPa | 0.5596
313.12 K, 100 kPa | 0.5386
313.12 K, 1000 kPa | 0.5427
313.12 K, 15000 kPa | 0.6039
322.97 K, 100 kPa | 0.4865
322.97 K, 20000 kPa | 0.5648
322.98 K, 1000 kPa | 0.4895
322.98 K, 5000 kPa | 0.5042
322.98 K, 10000 kPa | 0.5245
322.98 K, 15000 kPa | 0.544
322.98 K, 25000 kPa | 0.5856
322.98 K, 30000 kPa | 0.606
322.98 K, 35000 kPa | 0.6259
332.91 K, 100 kPa | 0.4422
332.91 K, 5000 kPa | 0.4595
332.92 K, 1000 kPa | 0.4448
332.92 K, 10000 kPa | 0.478
332.92 K, 15000 kPa | 0.4961
332.92 K, 20000 kPa | 0.5149
332.92 K, 25000 kPa | 0.5331
332.92 K, 30000 kPa | 0.5516
332.92 K, 35000 kPa | 0.5706
342.8 K, 1000 kPa | 0.4049
342.8 K, 10000 kPa | 0.4356
342.8 K, 15000 kPa | 0.4524
342.8 K, 20000 kPa | 0.4691
342.8 K, 25000 kPa | 0.4869
342.8 K, 30000 kPa | 0.5045
342.8 K, 35000 kPa | 0.5223
342.81 K, 100 kPa | 0.4022
342.81 K, 5000 kPa | 0.4186
352.72 K, 5000 kPa | 0.3851
352.72 K, 20000 kPa | 0.4335
352.72 K, 35000 kPa | 0.4807
352.73 K, 100 kPa | 0.3693
352.73 K, 1000 kPa | 0.372
352.73 K, 10000 kPa | 0.4003
352.73 K, 15000 kPa | 0.4164
352.73 K, 25000 kPa | 0.4495
352.73 K, 30000 kPa | 0.4654
362.66 K, 100 kPa | 0.339
362.66 K, 1000 kPa | 0.3418
362.66 K, 5000 kPa | 0.3538
362.66 K, 15000 kPa | 0.3838
362.66 K, 20000 kPa | 0.3986
362.66 K, 25000 kPa | 0.4137
362.66 K, 30000 kPa | 0.4289
362.67 K, 10000 kPa | 0.3685
362.67 K, 35000 kPa | 0.4429
372.59 K, 5000 kPa | 0.3272
372.59 K, 10000 kPa | 0.341
372.59 K, 15000 kPa | 0.3541
372.59 K, 20000 kPa | 0.3688
372.59 K, 25000 kPa | 0.3822
372.59 K, 30000 kPa | 0.3967
372.59 K, 35000 kPa | 0.4108
372.6 K, 1000 kPa | 0.3155
372.61 K, 100 kPa | 0.3127
